After the bases stand the sugars from the 5' end (letter, count) and the backbone: PS all phosphorothioate, else s phosphorothioate and o phosphodiester by linkage. Methylation of C is not given here. k = constrained ethyl (cEt); d = 2'-deoxy (DNA)
Target: IRF4
Settings: ASO

Sequence | target mRNA inhibition (MM.1R, 1 µM) | target mRNA inhibition (SK-MEL-28, 4 µM) | other results
CATTCACACTGCCGTG (sugars k3 d10 k3, PS) | 6% |  | 
CATTGAGGCATACAGT (sugars k3 d10 k3, PS) |  | 55% | 
CATTGGACCCACGAAG (sugars k3 d10 k3, PS) |  | 28% | 
CATTGGAGGAGGGTTG (sugars k3 d10 k3, PS) |  | -2% | 
CATTTCATTTAATGTC (sugars k3 d10 k3, PS) |  | 33% | 
CCAAAGTTACATCCTA (sugars k3 d10 k3, PS) |  | 39% | 
CCAACTTAAAATCCAC (sugars k3 d10 k3, PS) |  | 9% | 
CCAACTTATAGCACTC (sugars k3 d10 k3, PS) | 14% |  | 
CCAAGAGGTGCGAGTA (sugars k3 d10 k3, PS) |  | 33% | 
CCAAGCCTAGAGGTGC (sugars k3 d10 k3, PS) | 21% |  | 
CCAATTTATGCCATGG (sugars k3 d10 k3, PS) |  | 12% | 
CCACACCAGGAAACCG (sugars k3 d10 k3, PS) |  | 14% | 
CCACAGAGGACTTCGG (sugars k3 d10 k3, PS) |  | 27% | 
CCACAGTGAAGTCGGG (sugars k3 d10 k3, PS) | 6% |  | 
CCACGAAGGGCAGTGC (sugars k3 d10 k3, PS) | 0% |  | 
CCACGAGGCCCCGGAG (sugars k3 d10 k3, PS) | 4% |  | 
CCACGCGCGGAGGACC (sugars k3 d10 k3, PS) |  | 19% | 
CCACGGACGGAGGCGG (sugars k3 d10 k3, PS) | -6% |  | 
CCACTGTTAAAGCAGC (sugars k3 d10 k3, PS) |  | 66% | 
CCAGAACTAATGTCCC (sugars k3 d10 k3, PS) | 6% |  | 

Sequence | target mRNA inhibition (MM.1R, 1 µM) | target mRNA inhibition (SK-MEL-28, 4 µM) | other results
CCAGAAGTACGAGCAC (sugars k3 d10 k3, PS) | -3% |  | 
CCAGGATTCGCCATGG (sugars k3 d10 k3, PS) | 13% |  | 
CCATATTGGAAACCAG (sugars k3 d10 k3, PS) | 10% |  | 
CCCAAATGACTTAGTC (sugars k3 d10 k3, PS) |  | 32% | 
CCCAAGTGAGGTCACC (sugars k3 d10 k3, PS) |  | 20% | 
CCCAATACATATCCAT (sugars k3 d10 k3, PS) |  | 74% | 
CCCAATAGTCTAGCTG (sugars k3 d10 k3, PS) |  | 56% | 
CCCACACCAGCCCGGG (sugars k3 d10 k3, PS) |  | -6% | 
CCCACGCGGGAGGCTC (sugars k3 d10 k3, PS) | -23% |  | 
CCCATGAACACCATGC (sugars k3 d10 k3, PS) |  | 32% | 
CCCATTTAATCTGTCT (sugars k3 d10 k3, PS) |  | 33% | 
CCCCAGCTATGCTCTA (sugars k3 d10 k3, PS) | -30% |  | 
CCCCATATACATTGAG (sugars k3 d10 k3, PS) |  | 37% | 
CCCCATTGCCTGTTAA (sugars k3 d10 k3, PS) |  | 20% | 
CCCCTCTCCAGGTGGC (sugars k3 d10 k3, PS) |  | 13% | 
CCCCTCTCCAGGTGGC (sugars k4 d8 k4, PS) |  | -1% | 
CCCTACTGGGTACATG (sugars k3 d10 k3, PS) |  | 37% | 
CCCTTAGGATAATATA (sugars k3 d10 k3, PS) |  | 49% | 
CCCTTCCCGCTCCGAA (sugars k3 d10 k3, PS) |  | 16% | 
CCGAGATATAAATAGC (sugars k3 d10 k3, PS) | 25% | 61% | target mRNA inhibition (MM.1R, 0.0625 µM): 3%; target mRNA inhibition (MM.1R, 0.074 µM): 7%; target mRNA inhibition (MM.1R, 0.222 µM): 9%; target mRNA inhibition (MM.1R, 0.25 µM): 12%; target mRNA inhibition (MM.1R, 0.666 µM): 22%; target mRNA inhibition (MM.1R, 2 µM): 38%; target mRNA inhibition (MM.1R, 4 µM): 52%
